Laboratory results as given in patent US9833444B2 (priority 2013, dated 2017).
Where two headings read alike, the source gives them in different places.

Tests used:
[1] = tested on: dermonecrotic lesions developed in rabbits; assay type: in vivo; conditions: for histopathological analysis of the skin of rabbits inoculated with the venom: rabbit, in vivo; for reduction of dermonecrotic injury, 24 hours after venom inoculation / inhibition of dermonecrotic injury, 48 hours / inhibition of dermonecrotic injury, 72 hours: rabbits; for reduction of dermonecrotic injury, 24 hours after venom inoculation: compound at three times IC50 (136.2 μM compound 5, 190.2 μM compound 6); for inhibition of dermonecrotic injury, 48 hours / inhibition of dermonecrotic injury, 72 hours: compound at three times IC50
human keratinocytes [2] = experiment: cells; conditions: Keratinocyte
TNF-α = assay type: cell-based, human
[3] = target: PLD of C. pseudotuberculosis (Corynebacterium pseudotuberculosis, UniProt P20626); assay type: biochemical
Sequence of PLD of C. pseudotuberculosis (P20626 25-307 limits assumed): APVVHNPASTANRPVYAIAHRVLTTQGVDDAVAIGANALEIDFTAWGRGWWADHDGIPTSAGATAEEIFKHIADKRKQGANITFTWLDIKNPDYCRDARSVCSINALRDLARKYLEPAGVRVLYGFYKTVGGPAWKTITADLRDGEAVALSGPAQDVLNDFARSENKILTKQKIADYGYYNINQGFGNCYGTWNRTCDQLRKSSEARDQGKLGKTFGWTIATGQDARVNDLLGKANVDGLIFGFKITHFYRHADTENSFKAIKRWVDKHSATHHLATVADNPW

MMP-9 = assay type: cell-based, human
human keratinocytes [4] = experiment: cells; assay type: cell-based; conditions: Keratinocyte, read-out: inhibition of superoxide production
human keratinocytes [5] = assay type: cell-based; conditions: compound 40 μM; flow cytometry
ERK1/2 = experiment: Activation of MAPK ERK1/2 signaling pathway in keratinocytes induced by recombinant SMases D, ELISA; assay type: cell-based, human; conditions: compound 40 μM
human red blood cells [6] = assay type: cell-based
[7] = tested on: venom of Loxosceles laeta; assay type: biochemical; conditions: for inhibition of the hydrolytic activity of the venom of L. laeta on the SM substrate: 40 µM
TNF receptor = assay type: cell-based, human
MMP-2 = assay type: cell-based, human
human red blood cells [8] = assay type: cell-based; remark: listed apart in the source
[9] = Average inhibition of all activities tested (overall efficiency); conditions: average over all aspects analyzed
Description: Thus, taking into consideration all the aspects analyzed, compound 5 of the present invention is 61.1% efficient, while compound 6 of this invention is 54.1% efficient in relation to the mechanisms involved in the toxicity of SMases D in the development of loxoscelism.

[10] = target: SMases of Stahylococcus aureus (Staphylococcus aureus, UniProt P09978); experiment: Hydrolytic activity of SMase of Staphylococcus aureus on sphingomyelin; assay type: biochemical; conditions: compound 40 μM
Sequence of SMases of Stahylococcus aureus (P09978 35-330 limits assumed): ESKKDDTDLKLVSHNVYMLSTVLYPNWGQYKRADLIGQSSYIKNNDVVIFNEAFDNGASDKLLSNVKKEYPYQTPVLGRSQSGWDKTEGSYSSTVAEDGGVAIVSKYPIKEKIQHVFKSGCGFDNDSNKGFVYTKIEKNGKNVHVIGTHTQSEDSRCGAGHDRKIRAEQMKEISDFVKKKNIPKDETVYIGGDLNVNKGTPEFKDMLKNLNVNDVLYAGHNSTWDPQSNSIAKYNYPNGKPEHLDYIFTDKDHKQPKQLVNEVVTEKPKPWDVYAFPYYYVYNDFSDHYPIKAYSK

[11] = target: recombinant toxin sphingomyelinase D (SMase D) (Loxosceles laeta, UniProt Q8I914); experiment: biochemical; conditions: for inhibition at 40 µM: read-out: inhibition of the hydrolytic activity of recombinant toxin on the SM substrate
Sequence of recombinant toxin sphingomyelinase D (SMase D) (Q8I914 27-311 limits assumed): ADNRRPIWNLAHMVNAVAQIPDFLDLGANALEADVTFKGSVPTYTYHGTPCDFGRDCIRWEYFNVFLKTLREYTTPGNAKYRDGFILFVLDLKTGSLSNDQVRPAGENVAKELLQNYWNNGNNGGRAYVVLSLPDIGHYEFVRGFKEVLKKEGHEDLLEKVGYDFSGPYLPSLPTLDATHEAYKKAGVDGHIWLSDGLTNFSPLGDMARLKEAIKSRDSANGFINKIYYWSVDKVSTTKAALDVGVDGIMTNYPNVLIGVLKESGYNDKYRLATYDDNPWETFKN

TGF-β1 = assay type: cell-based, human
[12] = read-out: viability of human keratinocytes treated with recombinant toxin
[13] = read-out: viability of human keratinocytes treated with venom of L. laeta

| SMILES | histopathological analysis of the skin of rabbits inoculated with the venom [1] | reduction of dermonecrotic injury, 24 hours after venom inoculation [1] [%] | inhibition of dermonecrotic injury, 48 hours [1] [%] | inhibition of dermonecrotic injury, 72 hours [1] [%] | viability at 10 µM (human keratinocytes [2]; [12]) [%] | viability at 10 µM (human keratinocytes [2]; [13]) [%] | reduction of TNF-α production (TNF-α) [%] | reduction of PLD activity of C. pseudotuberculosis on sphingomyelin [3] | inhibition of MMP-9 secretion (MMP-9) | inhibition at 40 µM (human keratinocytes [4]) [%] | reduction of binding of SMases present in venom to the surface of human keratinocytes (human keratinocytes [5]) [%] | reduction of binding of recombinant toxin to the surface of human keratinocytes (human keratinocytes [5]) [%] | reduction of phosphorylated ERK1/2 (ERK1/2) [%] | reduction of binding of the toxin to the red blood cell surface (human red blood cells [6]) [%] | reduction of the hydrolytic activity of the venom on substrate LPC [7] [%] | inhibition of the hydrolytic activity of the venom of L. laeta on the SM substrate [7] [%] | reduction of MMP-2 secretion (MMP-2) [%] | reduction of removal of glycophorin C from the surface of human red blood cells (human red blood cells [8]) [%] | efficiency in relation to the mechanisms involved in the toxicity of SMases D (average inhibition of all activities tested) [9] [%] | reduction of hydrolytic activity of SMase of Staphylococcus aureus [10] | also measured |
| --- | --- | --- | --- | --- | --- | --- | --- | --- | --- | --- | --- | --- | --- | --- | --- | --- | --- | --- | --- | --- | --- |
| Cc1[nH]c2ccccc2c1/C=N/NS(=O)(=O)c1ccc(Br)cc1 [Compound 5, 4-bromo-N-[(E)-(2-methyl-1H-indol-3-yl)methyleneamino]benzenosulfonamide] | reduction in the disorganization of the collagen fibers in the dermis, absence of hemorrhage and inflammatory infiltrate | 61.8 | 60 | 56 | 55.8 | 45.9 | 73.9 | about 70% | completely inhibit | 70.7 | 63.8 | 54.9 | 65.8 | 96.8 | 44.4 | 53 | 81 | 92.6 | 61.1 | efficiently reduced | reversal of toxin-induced removal of the TNF receptor from the cell surface (TNF receptor): 27.7%; IC50 [11]: 45.4 ± 1.2 µM; inhibition mechanism [11]: uncompetitive action inhibitors; reduction of the hydrolytic activity of recombinant toxin on substrate LPC [11]: 38.6%; inhibition at 40 µM [11]: 45.7%; reduction of TGF-β1 production (TGF-β1): 88.3% |
| Cc1cc(OS(=O)(=O)c2ccc(Cl)cc2)cc2c1C(=O)C(=Cc1cccnc1)O2 [Compound 6, 4-methyl-3-oxo-2-(3-pyridylmethylene)benzo[3,4-b]furan-6-yl-4-chlorobenzenesulphonate] | reduction in the disorganization of the collagen fibers in the dermis, absence of hemorrhage and inflammatory infiltrate | 36 | 45 | 49 | 53.5 | 59.3 | 61.1 | about 68% | completely inhibit | 92.7 | 25.6 | 50.77 | 80.2 | 84 | 16 | 22.7 | 98.4 | 88.2 | 54.1 | efficiently reduced | IC50 [11]: 63.4 ± 1.1 µM; inhibition mechanism [11]: uncompetitive action inhibitors; reduction of the hydrolytic activity of recombinant toxin on substrate LPC [11]: 34%; inhibition at 40 µM [11]: 51%; reduction of TGF-β1 production (TGF-β1): 89.2% |
